From patent US7973034B2, “Amide, aryl sulfonamide, aryl urea, and α,β-diketone derived carboxylesterase inhibitors, and their methods of use” (priority 2003, dated 2011) come the findings set out here.

The target in assay [1] is T1, human small intestine carboxylesterase (hiCE) (Homo sapiens, UniProt O00748).
T1 sequence (O00748 27-559): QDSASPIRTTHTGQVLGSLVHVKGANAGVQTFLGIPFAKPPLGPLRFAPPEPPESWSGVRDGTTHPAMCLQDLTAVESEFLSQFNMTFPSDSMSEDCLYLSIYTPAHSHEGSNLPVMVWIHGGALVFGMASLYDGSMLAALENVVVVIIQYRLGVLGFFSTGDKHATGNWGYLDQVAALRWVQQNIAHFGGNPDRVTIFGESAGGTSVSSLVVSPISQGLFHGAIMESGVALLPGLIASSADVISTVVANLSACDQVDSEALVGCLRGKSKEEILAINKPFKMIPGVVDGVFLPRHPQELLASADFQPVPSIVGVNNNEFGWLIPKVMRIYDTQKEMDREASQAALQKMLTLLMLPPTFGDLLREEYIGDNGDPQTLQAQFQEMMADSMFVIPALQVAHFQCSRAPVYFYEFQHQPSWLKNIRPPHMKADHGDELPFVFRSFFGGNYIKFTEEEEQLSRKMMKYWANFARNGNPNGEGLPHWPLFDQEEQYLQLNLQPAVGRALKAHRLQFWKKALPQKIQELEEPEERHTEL
Description: biochemical. It counts as biochemical. Conditions: for Ki / Ki (hCE1)/Ki (hiCE): o-NPA as substrate; for Ki: Table 5, read-out: Ki hiCE; for Ki (hCE1)/Ki (hiCE): selectivity ratio.

The target of assay [2] is T2, human liver carboxylesterase (hCE1) (Homo sapiens, UniProt P23141).
T2 sequence (P23141 18-567): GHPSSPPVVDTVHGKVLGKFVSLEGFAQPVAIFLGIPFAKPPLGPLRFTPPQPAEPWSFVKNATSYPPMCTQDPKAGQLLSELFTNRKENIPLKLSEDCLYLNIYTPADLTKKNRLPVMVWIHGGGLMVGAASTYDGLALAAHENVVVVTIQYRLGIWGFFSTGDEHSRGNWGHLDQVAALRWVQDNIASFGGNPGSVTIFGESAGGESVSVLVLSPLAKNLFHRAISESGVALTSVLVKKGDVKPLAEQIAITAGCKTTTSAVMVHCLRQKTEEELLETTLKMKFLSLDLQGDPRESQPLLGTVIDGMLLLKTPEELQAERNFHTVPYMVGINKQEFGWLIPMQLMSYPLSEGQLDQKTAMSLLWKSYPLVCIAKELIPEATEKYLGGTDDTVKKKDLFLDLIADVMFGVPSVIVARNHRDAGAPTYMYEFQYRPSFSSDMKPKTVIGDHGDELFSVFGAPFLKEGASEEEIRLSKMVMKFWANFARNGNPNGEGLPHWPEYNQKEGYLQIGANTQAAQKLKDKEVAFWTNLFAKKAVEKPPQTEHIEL
As to the kind of experiment: biochemical. Conditions: o-NPA as substrate; Table 5; read-out: Ki hCE1. The assay is classed as biochemical.

Assay [3] deals with T3, rabbit liver carboxylesterase (rCE) (Oryctolagus cuniculus, UniProt P12337).
T3 sequence (P12337 19-565): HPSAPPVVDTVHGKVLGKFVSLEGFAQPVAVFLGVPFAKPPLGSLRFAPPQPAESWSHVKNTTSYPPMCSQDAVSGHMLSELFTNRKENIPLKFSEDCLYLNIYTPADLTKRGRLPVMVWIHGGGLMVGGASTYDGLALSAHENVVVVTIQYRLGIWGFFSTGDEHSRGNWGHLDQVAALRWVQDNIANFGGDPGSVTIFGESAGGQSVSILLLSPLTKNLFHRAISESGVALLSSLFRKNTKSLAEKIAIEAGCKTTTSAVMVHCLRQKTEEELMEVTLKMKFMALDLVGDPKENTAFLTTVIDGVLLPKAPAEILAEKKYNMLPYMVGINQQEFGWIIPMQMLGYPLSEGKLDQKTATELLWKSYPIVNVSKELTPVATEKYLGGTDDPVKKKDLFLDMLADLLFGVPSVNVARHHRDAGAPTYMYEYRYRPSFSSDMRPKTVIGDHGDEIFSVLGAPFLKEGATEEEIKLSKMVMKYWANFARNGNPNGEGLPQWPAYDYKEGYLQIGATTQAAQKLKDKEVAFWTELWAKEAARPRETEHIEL
Description: biochemical. The assay is classed as biochemical. Conditions: o-NPA as substrate; Table 5; read-out: Ki rCE.

The target in assay [4] is T4, human acetylcholinesterase (hAcChE) (Homo sapiens, UniProt P22303).
T4 construct: purchased Sigma Biochemicals (St. Louis, Mo.)
T4 sequence (P22303 32-614): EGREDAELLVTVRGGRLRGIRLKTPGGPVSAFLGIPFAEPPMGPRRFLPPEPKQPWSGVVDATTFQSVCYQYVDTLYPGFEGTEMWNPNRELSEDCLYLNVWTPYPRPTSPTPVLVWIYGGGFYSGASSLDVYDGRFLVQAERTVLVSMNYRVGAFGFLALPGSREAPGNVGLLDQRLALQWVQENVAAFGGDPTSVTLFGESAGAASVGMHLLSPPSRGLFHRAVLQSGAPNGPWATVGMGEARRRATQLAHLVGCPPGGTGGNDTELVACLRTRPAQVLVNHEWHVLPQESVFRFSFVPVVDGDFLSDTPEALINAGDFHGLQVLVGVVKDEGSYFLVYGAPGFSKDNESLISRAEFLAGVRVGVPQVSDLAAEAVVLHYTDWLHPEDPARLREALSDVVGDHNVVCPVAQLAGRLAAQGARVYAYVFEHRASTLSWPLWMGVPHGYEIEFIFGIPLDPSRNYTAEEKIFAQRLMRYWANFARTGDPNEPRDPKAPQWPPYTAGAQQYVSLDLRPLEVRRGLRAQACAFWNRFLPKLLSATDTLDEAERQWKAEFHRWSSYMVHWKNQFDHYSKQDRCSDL
Description: biochemical. It counts as biochemical. Conditions: acetylthiocholine substrate; Table 5; read-out: Ki hAcChE. The protocol:
Data was transferred to GraphPad Prism software, and Ki values were calculated as described in the Example above.

The target of assay [5] is human butyrylcholinesterase (hBuChE) (Homo sapiens, UniProt P06276). Description: biochemical.
Sequence of human butyrylcholinesterase (hBuChE) (P06276 29-602): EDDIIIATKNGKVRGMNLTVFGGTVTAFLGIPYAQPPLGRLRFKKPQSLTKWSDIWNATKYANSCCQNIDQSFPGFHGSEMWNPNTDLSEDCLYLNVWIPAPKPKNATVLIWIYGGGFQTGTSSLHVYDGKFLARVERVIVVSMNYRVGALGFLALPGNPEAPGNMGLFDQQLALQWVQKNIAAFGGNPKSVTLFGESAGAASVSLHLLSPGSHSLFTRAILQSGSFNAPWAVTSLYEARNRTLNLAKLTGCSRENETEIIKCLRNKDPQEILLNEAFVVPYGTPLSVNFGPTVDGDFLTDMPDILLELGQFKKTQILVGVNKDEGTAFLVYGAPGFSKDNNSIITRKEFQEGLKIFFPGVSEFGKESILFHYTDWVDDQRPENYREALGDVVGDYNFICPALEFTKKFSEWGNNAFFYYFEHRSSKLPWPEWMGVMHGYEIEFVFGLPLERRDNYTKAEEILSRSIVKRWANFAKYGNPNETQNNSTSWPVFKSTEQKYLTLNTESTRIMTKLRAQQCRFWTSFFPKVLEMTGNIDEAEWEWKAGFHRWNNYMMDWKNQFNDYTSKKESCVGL
In the next assay the target is T5, hiCE (Homo sapiens, UniProt O00748).
T5 sequence (O00748 27-559): T1 sequence (O00748 27-559)
As to the kind of experiment: Inhibition of hiCE-mediated activation of CPT-11 (SN-38 by HPLC). The assay is classed as biochemical. The protocol:
Since the sulphonamide compounds identified herein are competitive inhibitors of hiCE, their activity is dependant upon the substrate used. To access the ability of these compounds to inhibit the hiCE-mediated activation of CPT-11, Ki values were determined using CPT-11 as the substrate.
CPT-11 concentrations were fixed at […], and inhibitor concentrations varied from 1 nM to 10 μM. Following incubation for an hour at 37° C., the levels of SN-38 in the reaction mixture was determined by High Performance Liquid Chromatography (HPLC).

The target in assay [6] is T6, human intestinal carboxylesterase in U373MGhiCE cells (Homo sapiens, UniProt O00748).
T6 construct: expressed in transfected cells; host or cells: U373MG human glioma cells (U373MGhiCE)
T6 sequence (O00748 27-559): T1 sequence (O00748 27-559)
As to the kind of experiment: Inhibition of intracellular carboxylesterase in U373MGhiCE cells. The assay is classed as cell-based. The protocol:
To monitor the ability of the compounds to cross the cell membrane and inhibit carboxylesterase activity intracellularly, an assay using human tumor cells expressing hiCE was devised. U373MGhiCE (a human glioma cell line transfected with a plasmid expressing hiCE) were plated in T25 flasks and allowed to grow to confluency (approximately 2-5×10^5 cells). Inhibitors were then added at a final concentration of […], and incubation allowed to continue for 1 hour. At this time, the cells were washed extensively with 5 ml of complete media and 2×5 ml of Hanks balanced salt solution, and cell extracts were prepared. Carboxylesterase activity was then determined using o-NPA as a substrate.
Table 8 sets forth the level of intracellular enzyme inhibition following incubation of human glioblastoma tumor cells expressing human intestinal carboxylesterase with 10 μM of each compound identified in Table 3.

The mark [7] stands for this setting: CPT-11 as substrate (100 μm), 1 hour at 37° C., read-out: Ki hiCE.

Like-named read-outs stand apart in the source and are kept apart here. Bounds are passed on as bounds.

As for `O=S(=O)(Nc1c(Cl)c(Cl)c(NS(=O)(=O)c2ccccc2)c(Cl)c1Cl)c1ccccc1` [Compound 44, N-{2,3,5,6-tetrachloro-4-[(phenylsulfonyl)amino]phenyl}benzene sulfonamide], the “change in apparent Vmax of hiCE” value in assay [1] (149 nM or 447 nM inhibitor) is on record as “no change”. The Ki is 0.451 ± 0.039 µM in assay [1]; > 100 µM in assay [2]; > 100 µM in assay [3]; > 100 µM in assay [4]; > 100 µM in assay [5]; > 100 µM on hiCE (setting [7]). The “Ki (hCE1)/Ki (hiCE)” value in assay [1] was >220. Also, in assay [6], 10 µM produced 0.6% inhibition.

Turning to `O=S(=O)(Nc1ccc(NS(=O)(=O)c2ccc(Cl)cc2)cc1)c1ccc(Cl)cc1` [Compound 45, 4-chloro-N-(4-{[(4-chlorophenyl)sulfonyl]amino}phenyl) benzenesulfonamide], the inhibition constant Ki in assay [1] was 0.0533 ± 0.0055 µM; in assay [2], 13.7 µM; in assay [3] it was 1.2 µM; in assay [4] it was > 100 µM; in assay [5], > 100 µM; on hiCE, 0.141 ± 0.064 µM. The “Ki (hCE1)/Ki (hiCE)” value in assay [1] is listed as >250. This molecule returned an inhibition at 10 µM in assay [6] of 7.5%.

With `O=S(=O)(Nc1ccc(Oc2ccccc2)cc1)c1ccc(Br)cc1` [Compound 46, 4-bromo-N-(4-phenoxyphenyl)benzenesulfonamide], the inhibition constant Ki was 0.165 ± 0.033 µM in assay [1]; > 100 µM in assay [2]; 0.319 ± 0.037 µM in assay [3]; > 100 µM in assay [4]; > 100 µM in assay [5]; > 100 µM at hiCE (setting [7]). Moreover, the “Ki (hCE1)/Ki (hiCE)” value in assay [1] was >600. In assay [6], this molecule came in with an inhibition at 10 µM of 0%.

`O=S(=O)(Nc1ccc(NS(=O)(=O)c2ccc(Cl)cc2)c2ccccc12)c1ccc(Cl)cc1` [Compound 47, 4-chloro-N-(4-{[(4-chlorophenyl)sulfonyl]amino}-1-naphthyl)benzenesulfonamide]: the Ki is 0.194 ± 0.023 µM in assay [1]; > 100 µM in assay [2]; > 100 µM in assay [3]; > 100 µM in assay [4]; > 100 µM in assay [5]; > 100 µM on hiCE (setting [7]). Besides, the “Ki (hCE1)/Ki (hiCE)” value in assay [1] is >500. In addition, the inhibition at 10 µM in assay [6] was 9.2%.

Regarding `Cc1cc(C)c(S(=O)(=O)Nc2ccccc2)cc1S(=O)(=O)Nc1ccccc1` [Compound 48, 4,6-dimethyl-N,N′-diphenylbenzene-1,3-disulfonamide], the Ki in assay [1] was 0.218 ± 0.045 µM; in assay [2] it was > 100 µM; in assay [3], > 100 µM; in assay [4], > 100 µM; in assay [5] it was > 100 µM; at hiCE (setting [7]), > 100 µM. Moreover, the “Ki (hCE1)/Ki (hiCE)” value in assay [1] is >450. In assay [6], this molecule returned an inhibition at 10 µM of 8.9%.

As for `Cc1cc(NS(=O)(=O)c2ccccc2)ccc1NS(=O)(=O)c1ccccc1` [Compound 49, N-{2-methyl-4-[(phenylsulfonyl)amino]phenyl}benzene sulfonamide], the Ki in assay [1] is 0.365 ± 0.087 µM; in assay [2], > 100 µM; in assay [3], 3.23 µM; in assay [4], > 100 µM; in assay [5], > 100 µM; at hiCE it was 0.238 ± 0.029 µM. The “Ki (hCE1)/Ki (hiCE)” value in assay [1] was >250. The molecule further displayed an inhibition at 10 µM in assay [6] of 7.6%.

Consider `CS(=O)(=O)Nc1ccc(SSc2ccc(NS(C)(=O)=O)cc2)cc1` [Compound 50, N-[4-({4-[(methylsulfonyl)amino]phenyl}dithio)phenyl]methanesulfonamide], for which the Ki is 0.767 ± 0.285 µM in assay [1]; > 100 µM in assay [2]; 0.739 ± 0.384 µM in assay [3]; > 100 µM in assay [4]; > 100 µM in assay [5]; > 100 µM on hiCE (setting [7]). The “Ki (hCE1)/Ki (hiCE)” value in assay [1] was >125. This molecule had an inhibition at 10 µM in assay [6] of 14.6%.

On to `O=S(=O)(Nc1ccc(NS(=O)(=O)c2ccccc2)cc1)c1ccccc1` [Compound 51, N-{4-[(phenylsulfonyl)amino]phenyl}benzene sulfonamide], for which the inhibition constant (Ki) is 1.06 µM in assay [1]; > 100 µM in assay [2]; 1.55 µM in assay [3]; > 100 µM in assay [4]; > 100 µM in assay [5]; 0.892 ± 0.067 µM at hiCE (setting [7]). In addition, in assay [1], the “Ki (hCE1)/Ki (hiCE)” value is >90. In addition, the inhibition at 10 µM in assay [6] was 5.5%.

Consider `CCOc1ccc(NS(=O)(=O)c2ccc(Cl)cc2)cc1` [Compound 52, 4-chloro-N-(4-ethoxyphenyl)benzenesulfonamide], for which the Ki in assay [1] was 1.31 µM; in assay [2], > 100 µM; in assay [3], 2 µM; in assay [4] it was > 100 µM; in assay [5], > 100 µM; at hiCE, 3.22 µM. The “Ki (hCE1)/Ki (hiCE)” value in assay [1] is reported as >75. Further, in assay [6], 10 µM produced 9.6% inhibition.

As for `O=S(=O)(Nc1c(F)c(F)c(NS(=O)(=O)c2ccc(Cl)cc2)c(F)c1F)c1ccc(Cl)cc1` [Compound 59], the Ki in assay [1] was 0.0415 ± 0.0065 µM; in assay [2] it was > 100 µM; in assay [3] it was 0.522 ± 0.144 µM; in assay [4], > 100 µM; in assay [5], > 100 µM; at hiCE, 0.11 ± 0.023 µM. Moreover, the “Ki (hCE1)/Ki (hiCE)” value in assay [1] was >2,400. Moreover, in assay [6], the inhibition at 10 µM was determined as 8.3%.

The Ki is the equilibrium dissociation constant of an inhibitor or competing ligand from its target. As a reminder, the inhibition is the share of the control response that was lost under treatment. A high value points to strong suppression.
